These are literature values, as cited in patent US20070014834A1, “Apparatus and methods of improved delivery of orally-administered therapeutic substances” (priority 2005, published 2007).

Data set [1] deals with citric acid-induced cough. Particulars: guinea-pigs in vivo.
Another data set concerns capsaicin-induced cough. Particulars: for concentration of capsaicin required to produce a cough, compared with placebo: 10 healthy volunteers.

For the compound `Cn1cnc2c1c(=O)[nH]c(=O)n2C` [theobromine], the “inhibition of capsaicin-induced sensory nerve depolarization” value in the data set on human vagus nerve and in the data set on guinea-pig vagus nerve was “directly inhibits” each time. Also, the “inhibition of citric acid-induced cough” value in data set [1] was “effectively inhibits”. Moreover, the “concentration of capsaicin required to produce a cough, compared with placebo” value in the data set on capsaicin-induced cough is “around one third higher”. Besides, the “effectiveness in stopping persistent coughs compared with codeine” value in the data set on capsaicin-induced cough (compared with codeine) is “nearly a third more effective”. For the same compound, the “suppression of capsaicin-induced cough” value with capsaicin-induced cough (randomized, double-blind, placebo-controlled study in man) is reported as “suppresses”.
Take `COc1ccc2c3c1O[C@H]1[C@@H](O)C=C[C@H]4[C@@H](C2)N(C)CC[C@@]341` [codeine]: in the data set with capsaicin-induced cough, the “concentration of capsaicin required to produce a cough, compared with placebo” value was “only marginally higher”.
